≈ marks a conversion by molar mass, not a printed value. Where “and” joins values, the source holds several entries; their conditions need not be identical. Equal values may be shown once. Read-outs that look alike come from different tables or passages of the source.
How the values were obtained:
[1] = target: T1, helicase domain of the Pol θ protein (Homo sapiens, UniProt O75417); assay: Biochemical Activity Assay (ADP Glo Assay) of Pol θ inhibitor, ATPase activity
T1 construct: The helicase domain of the Pol θ protein was purified from insect protein expression system; made in house; host or cells: insect protein expression system

Solubility assay = settings: phosphate buffer, pH 7.4, aqueous buffer, kinetic from dmso stock
cells = settings: Homo sapiens, DLD-1, 240 h
in vitro = settings: mouse, microsomes, pH 7.4
[2] = Mouse PK assay after oral administration
[3] = read-out: Cell viability assay IC50
[4] = ADP-Glo assay, ATPase activity of Pol θ helicase domain, ssDNA substrate, read-out: Biochemical assay IC50
[5] = read-out: Cell viability assay IC50 (nM), CTG assay, CellTiter Glo, read on Day 10, cell line not given
[6] = male, ICR, mouse, plasma, po, 30 mg/kg
[7] = mice, oral, administration dose 30 mg/kg, plasma
[8] = read-out: Cell viability assay IC50 (nM)
[9] = ADP-Glo, ssDNA substrate, 60 min at room temperature, read-out: Biochemical assay IC50
[10] = CTG on Day 10, cell line not given (method: DLD1 and DLD1^-/- cells)
[11] = Biochemical assay IC50 (nM), ADP-Glo assay, ATPase activity of Pol θ helicase domain, ssDNA substrate
[12] = Biochemical assay IC50 (nM), ADP-Glo, ssDNA substrate, 60 min at room temperature
[13] = read-out: Biochemical assay IC50
[14] = read-out: Cell viability assay IC50 (nM), CTG on Day 10, cell line not given (method: DLD1 and DLD1^-/- cells)

T1 sequence (O75417 102-554 limits assumed): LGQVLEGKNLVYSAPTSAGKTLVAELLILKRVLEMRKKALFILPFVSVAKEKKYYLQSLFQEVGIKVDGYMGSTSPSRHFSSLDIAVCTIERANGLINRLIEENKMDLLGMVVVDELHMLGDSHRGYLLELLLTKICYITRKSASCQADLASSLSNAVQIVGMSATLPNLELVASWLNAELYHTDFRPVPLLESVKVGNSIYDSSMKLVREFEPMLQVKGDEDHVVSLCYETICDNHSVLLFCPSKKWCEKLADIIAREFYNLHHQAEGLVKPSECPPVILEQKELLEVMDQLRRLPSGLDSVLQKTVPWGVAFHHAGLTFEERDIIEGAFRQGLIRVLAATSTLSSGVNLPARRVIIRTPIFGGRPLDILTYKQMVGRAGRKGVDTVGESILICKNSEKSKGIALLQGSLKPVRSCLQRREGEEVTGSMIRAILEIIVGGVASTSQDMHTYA

IC50 [1, 4] [nM]	IC50 [1, 9] [nM]	Structure (SMILES)	IC50 (cells; [5]) [nM]	IC50 [3] [nM]	IC50 (cells; [8]) [nM]	IC50 (cells; [14]) [nM]	further results
6.91		COc1ccc(Cl)cc1-c1cc(C)ncc1C(=O)Nc1nc2ncc(-c3ccc(C#N)cc3)nc2s1 [Comparative Example 1, reference compound]					solubility at 2 h (Solubility assay): 2.35 µM (≈ 1.21 µg/mL)
3.41		COc1cnc(C(F)F)cc1-c1cc(C)ncc1C(=O)Nc1nc2cnc(-c3c(C)noc3C)cc2s1 [Example 207]	8.57				half-life at 1 µM (in vitro): 14.4 h; solubility at 2 h (Solubility assay): 58.7 µM (≈ 30.7 µg/mL); MRT [2, 6]: 5.13 h; bioavailability [2, 6]: 311%; half-life [2, 6]: 1.97 h; Time to peak ([2]; mice, oral, administration dose 30 mg/kg): 1.67 h; Area under curve (0-t; hr * ng/mL) [2, 7]: 581.387 µg·h/mL; Peak concentration [2, 7]: 52444 ng/mL
		COc1cnc(Cl)cc1-c1cc(C)ncc1C(=O)Nc1nn2cc(-c3ccccn3)nc2s1 [Example 97, 2'-chloro-5'-methoxy-6-methyl-N-(6-(pyridin-2-vyl)imidazol[2,1-b][1,3,4]thiadiazol-2-yl)-[4,4'-bipyridine]-3-carboxamide]		1210	> 1000		IC50 ([1]; Biochemical assay IC50 (nM)): < 50 nM and 26.4 nM
		COc1cnc(Cl)c(F)c1-c1cc(C)ncc1C(=O)Nc1nc2c(s1)CN(C(=O)C1CCOC1)CC2 (stereo not drawn) [Example 54, 2'-chloro-3'-fluoro-5'-methoxy-6-methyl-N-(5-(tetrahydrofuran-3-carbonyl)-4,5,6,7-tetrahydrothiazol[5,4-c]pyridin-2-yl)-[4,4'-bipyridine]-3-carboxamide]		794	500 to 1000		IC50 ([1]; Biochemical assay IC50 (nM)): < 50 nM and 40.6 nM
		COc1cnc(Cl)cc1-c1cc(C)ncc1C(=O)Nc1nc2ncc([C@H]3CC[C@@H](O)CC3)cc2s1 [Example 26, 2'-chloro-N-(6-((1s, 4s)-4-hydroxycyclohexyl)thiazolo[4,5-b]pyridin-2-yl)-5'-methoxy-6-methyl-[4,4'-bipyridine]-3-carboxamide]		158	100 to 500		IC50 ([1]; Biochemical assay IC50 (nM)): < 50 nM and 5.69 nM
		[2H]C([2H])([2H])c1cc(-c2cc(Cl)ncc2OC)c(C(=O)Nc2nc3ccc(N4CCC(O)CC4)nc3s2)cn1 [Example 109]		147	< 100		IC50 [1, 11]: 6.71 nM; IC50 [1, 12]: < 50 nM
1240	> 500	COc1cnc(Cl)cc1-c1cc(C)ncc1C(=O)Nc1nc2c(s1)CNCC2 [Example 41, 2'-chloro-5'-methoxy-6-methyl-N-(4,5,6,7-tetrahydrothiazol[5,4-c]pyridin-2-yl)-[4,4'-bipyridine]-3-carboxamide]					IC50 [3, 10]: > 1000 nM
		COc1cnc(Cl)cc1-c1cc2cnc(C)n2cc1C(=O)Nc1nc2ccc(C3=CCC(O)CC3)nc2s1 (stereo not drawn) [Example 55, 7-(2-chloro-5-methoxypyridin-4-yl)-N-(5-(4-hydroxycyclohex-1-en-1-yl)thiazol[5,4-b]pyridin-2-yl)-3-methylimidazol[1,5-a]pyridin-6-carboxamide]		112	100 to 500		IC50 ([1]; Biochemical assay IC50 (nM)): < 50 nM and 28.7 nM
		COc1cnc(Cl)c(F)c1-c1cc(C)ncc1C(=O)Nc1nc2ccccc2s1 [Examples 39]		108	100 to 500		IC50 [1, 13]: < 50 nM and 8.57 nM
		COc1cnc(Cl)cc1-c1cc(C)ncc1C(=O)Nc1nc2ccc(C3(O)CCC(O)CC3)cc2s1 (stereo not drawn) [Examples 89]		171	100 to 500		IC50 [1, 13]: < 50 nM and 36.7 nM
		COc1cnc(Cl)cc1-c1cc(C)ncc1C(=O)Nc1nc2ccc(N3CCOCC3)cc2s1 [Example 45, 2-chloro-5-methoxy-6-methyl-N-(6-morpholinylbenzothiazol-2-yl)-4, 4'-bipyridin-3-car boxamide]		141	100 to 500		IC50 [1, 11]: 25.4 nM; IC50 [1, 12]: < 50 nM
		COc1cnc(Cl)cc1-c1cc(C)ncc1C(=O)Nc1nc2ncc([C@H]3CC[C@H](O)CC3)cc2s1 [Example 27, 2'-chloro-N-(6-((1r, 4r)-4-hydroxycyclohexyl)thiazolo[4,5-b]pyridin-2-yl)-5'-methoxy-6-methyl-[4,4'-bipyridine]-3-carboxamide]		736	500 to 1000		IC50 ([1]; Biochemical assay IC50 (nM)): < 50 nM and 10.3 nM
1.88	< 50	[2H]COc1cnc(Cl)cc1-c1cc(C)ncc1C(=O)Nc1nc2cnc(C3=CCC(O)CC3)cc2s1 (stereo not drawn) [Example 108, 2'-chloro-N-(6-(4-hydroxycyclohex-1-en-1-yl)thiazolo[4,5-c]pyridin-2-yl)-5'-deuteromet hoxy-6-methyl-[4,4'-bipyridine]-3-carboxamide]	8.79			< 100	
2.08		COc1cnc(Cl)cc1-c1cc(C)ncc1C(=O)Nc1nc2ncc(C3COCCO3)cc2s1 (stereo not drawn) [Example 182, N-(6-(1,4-dioxan-2-yl)thiazolo[4,5-b]pyridin-2-yl)-2'-chloro-5'-methoxy-6-methyl-[4,4'-bipyridine]-3-carboxamide]	39.8				
2.43		COc1cnc(Cl)c(F)c1-c1cc(C)ncc1C(=O)Nc1nc2cnc(-c3c(C)cnn3C)cc2s1 [Example 210]	< 1.52				
5.08		COc1cnc(Cl)cc1-c1cc(C)ncc1C(=O)Nc1nc2cnc(-c3c(C)cnn3C)nc2s1 [Example 157]	32.9				
5.14	< 50	COc1cnc(Cl)cc1-c1cc(C)ncc1C(=O)Nc1nc2ncc(-c3ccc(=O)[nH]c3)cc2s1 [Example 76]				> 1000	
		COc1cnc(Cl)cc1-c1cc(C)ncc1C(=O)Nc1nc2cnc(-c3c(C(F)F)nnn3C)cc2s1 [Example 226, 2'-chloro-N-(6-(4-(difluoromethyl)-1-methyl-1H-1,2,3-triazol-5-yl)thiazolo[4,5-c]pyridin-2-yl)-5'-methoxv-6-methyl-[4.4'-bipyridine]-3-carboxamide]			8.46		IC50 ([1]; Biochemical assay IC50 (nM)): 4.02 nM
2.72	< 50	COc1cnc(Cl)cc1-c1cc(C)ncc1C(=O)Nc1nc2ncc(N3CCN(S(C)(=O)=O)CC3)cc2s1 [Example 65]	42.2			< 100	
19.1		COc1cnc(Cl)cc1-c1cc(C)ncc1C(=O)Nc1nc2ccc(N3CCn4ccnc4C3)nc2s1 [Example 139]	121				
6.98	< 50	COc1cnc(Cl)cc1-c1cc(C)ncc1C(=O)Nc1nc2ncc(S(C)(=O)=O)cc2s1 [Example 94, 2'-chloro-5'-methoxy-6-methyl-N-(6-(methylsulfonyl)thiazolo[4,5-b]pyridin-2-yl)-[4,4'-bipyridine]-3-carboxamide]	631			500 to 1000	
1.96	< 50	COc1cnc(Cl)c(F)c1-c1cc(C)ncc1C(=O)Nc1nc2ccc(N3CCC(O)CC3)nc2s1 [Example 53]	9.38			< 100	
6.11		COc1cnc(Cl)cc1-c1cc(C)ncc1C(=O)Nc1nc2ccc(N3CCOCC3=O)nc2s1 [Example 202]	38.8				
1.15	< 50	COc1cnc(Cl)cc1-c1cc(C)ncc1C(=O)Nc1nc2ncc(C3(O)CCC4(CC3)COC4)cc2s1 [Example 88, 2'-chloro-N-(6-(7-hydroxy-2-oxaspiro[3.5]non-7-yl)thiazolo[4,5-b]pyridin-2-yl)-5'-methoxy-6-methyl-[4,4'-bipyridine]-3-carboxamide]	52.1			< 100	
4.98	< 50	COc1cnc(Cl)cc1-c1cc(C)ncc1C(=O)Nc1nc2ncc(N3CCC(OC)CC3)cc2s1 [Example 66]	192			100 to 500	
4.36	< 50	COc1cnc(Cl)cc1-c1cc(C)ncc1C(=O)Nc1nc2ncc(C3CCOCC3)cc2s1 [Example 37]	44.7			< 100	
26.4	< 50	Cc1cc(-c2c(F)cccc2OC(F)F)c(C(=O)Nc2nc3ccc(C4=CCC(O)CC4)nc3s2)cn1 (stereo not drawn) [Example 7]	73.6			< 100	

Structure (SMILES)	IC50 [1, 4] [nM]	IC50 [1, 9] [nM]	IC50 (cells; [5]) [nM]	IC50 [3] [nM]	IC50 (cells; [8]) [nM]	IC50 (cells; [14]) [nM]	further results
COc1cnc(Cl)cc1-c1cc(C)ncc1C(=O)Nc1nc2c(s1)CN(C1CCC(O)CC1)CC2 (stereo not drawn) [Example 42, 2'-chloro-N-(5-(4-hydroxycyclohexyl)-4,5,6,7-tetrahydrothiazol[5,4-c]pyridin-2-yl)-5'-m ethoxy-6-methyl-[4,4'-bipyridine]-3-carboxamide]	200	200 to 500					IC50 [3, 10]: > 1000 nM
COc1cnc(Cl)cc1-c1cc(C)ncc1C(=O)Nc1nc2ccc([C@H]3CC[C@@H](O)CC3)nc2s1 [Example 28]	12.1	< 50		178	100 to 500		
COc1cnc(Cl)cc1-c1cnccc1C(=O)Nc1nc2ccc([C@H]3CC[C@@H](O)CC3)nc2s1 [Example 33]	24.9	< 50		171	100 to 500		

— patent publication EP4585599A1, “NITROGEN-CONTAINING FUSED RING COMPOUND, INTERMEDIATE THEREOF, PREPARATION METHOD THEREFOR AND USE THEREOF” (Hangzhou Synrx Therapeutics Biomedical Technology Co., Ltd., priority 2022, dated 2024)
